Values of other authors in patent US20050154020A1, “4-Aryl piperidines” (Synaptic Pharmaceutical Corporation, priority 2004, published 2005).

Tests used:
MCH1 [1] = target: T1, MCH1 (Cavia porcellus, UniProt H0VKT7)
T1 construct: from tissue; host or cells: whole living guinea pig (in vivo behavioural model)

MCH1 [2] = target: T2, MCH1 (Rattus norvegicus, UniProt P97639)
T2 construct: from tissue; host or cells: whole living rat (in vivo behavioural model)

MCH1 [3] = target: T2, MCH1; remark: listed apart in the source

T2 sequence (P97639 whole entry): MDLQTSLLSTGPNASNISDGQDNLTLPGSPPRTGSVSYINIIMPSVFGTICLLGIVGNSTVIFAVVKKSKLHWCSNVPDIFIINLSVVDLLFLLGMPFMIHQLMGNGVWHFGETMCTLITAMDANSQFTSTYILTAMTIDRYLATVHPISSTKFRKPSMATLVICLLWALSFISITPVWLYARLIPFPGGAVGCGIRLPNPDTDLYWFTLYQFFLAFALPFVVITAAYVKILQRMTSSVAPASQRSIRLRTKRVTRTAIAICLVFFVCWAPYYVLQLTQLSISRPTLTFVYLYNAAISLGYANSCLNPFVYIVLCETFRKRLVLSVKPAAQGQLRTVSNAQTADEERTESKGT
T1 sequence (H0VKT7 1-355): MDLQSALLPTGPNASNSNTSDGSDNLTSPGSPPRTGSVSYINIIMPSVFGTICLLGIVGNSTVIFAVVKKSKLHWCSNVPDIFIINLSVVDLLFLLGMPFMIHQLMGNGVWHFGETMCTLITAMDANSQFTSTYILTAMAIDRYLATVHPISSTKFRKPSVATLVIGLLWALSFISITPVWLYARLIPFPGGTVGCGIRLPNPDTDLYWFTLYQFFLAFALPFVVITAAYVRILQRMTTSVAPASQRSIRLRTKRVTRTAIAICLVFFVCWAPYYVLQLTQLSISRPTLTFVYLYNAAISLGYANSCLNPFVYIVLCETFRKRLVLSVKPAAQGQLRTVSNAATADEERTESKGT

SMILES: COCC1=C(C(=O)OC)[C@H](c2ccc(F)c(F)c2)N(C(=O)NCCCN2CCC(c3cccc(NC(C)=O)c3)CC2)C(=O)N1 [SNAP-7941]
- effect in guinea pig maternal-separation vocalization test (model of depression/anxiety) (MCH1 [1]): effects similar to clinically used antidepressants and anxiolytics
- effect in rat forced-swim test (model of depression/anxiety) (MCH1 [2]): effects similar to clinically used antidepressants and anxiolytics
- effect in rat social interaction test (model of depression/anxiety) (MCH1 [3]): effects similar to clinically used antidepressants and anxiolytics
